# Measurements as given in patent publication US4464378A, “Method of administering narcotic antagonists and analgesics and novel dosage forms containing same” (University of Kentucky Research Foundation, priority 1981, dated 1984).
# How the values were obtained:
# [1] = 30 μg/rat
# [2] = in vivo; details: rat, plasma, 0.03 mg; for AUC(0-inf): Area under the blood level curve (AUC ^.infin.0); for AUC(0-inf) / concentration at 1 min / concentration at 0.05 h / concentration at 10 min / concentration at 20 min / concentration at 0.5 h / concentration at 0.75 h / concentration at 1 h / concentration at […] / concentration at 2 h / concentration at 3 h / concentration at 5 min: 30 μg/rat; for concentration at 1 min / concentration at 0.05 h / concentration at 10 min / concentration at 20 min / concentration at 0.5 h / concentration at 0.75 h / concentration at 1 h / concentration at […] / concentration at 2 h / concentration at 3 h / concentration at 5 min: Plasma Level; for concentration at 0.05 h: 3 min; for concentration at 0.5 h: 30 min; for concentration at 0.75 h: 45 min; for concentration at 1 h: 60 min; for concentration at […]: 90 min; for concentration at 2 h: 120 min; for concentration at 3 h: 180 min
# [3] = nasal, individual rats I, II, III
# [4] = po, Mean, oral (intraduodenal), mean of 3 rats
compound,measurement,setting,value
C=CCN1CC[C@]23c4c5ccc(O)c4O[C@H]2C(=O)CC[C@@]3(O)[C@H]1C5 [naloxone],absorption via the nasal route compared with the intravenous route,[1]; nasal vs intravenous,as effective as via the intravenous route
same,"areas under the curve following intravenous and nasal administration, compared",[1]; nasal vs intravenous,not significantly different
same,bioavailability when administered nasally compared with intravenously,[1]; nasal vs intravenous,equivalent to the bioavailability of the drug when administered intravenously
same,half-life of elimination after nasal administration compared with intravenous,[1]; nasal vs intravenous,comparable to its half-life following intravenous nasal administration
same,bioavailability when administered nasally compared with the oral route,[1]; nasal vs oral,vastly superior to its bioavailability by the oral route
same,absorption from the nasal mucosa,[1]; nasal,very rapidly absorbed from the nasal mucosa
same,absorption from the nasal mucosa into the systemic circulation; intestinal or first pass metabolism,[1]; nasal,rapidly absorbed from the nasal mucosa into the systemic circulation without extensive intestinal or first pass metabolism
same,Tmax,[2],~5 min
same,bioavailability,[2],1.5%
same,half-life,[2],52.1 min
same,AUC(0-inf),"[2]; Mean, nasal, mean of 3 rats",25.3 ng·h/mL
same,AUC(0-inf),[2]; [3],31.7 ng·h/mL
same,concentration at 1 min,"[2]; Mean, nasal, mean of 3 rats",23.3 ng/mL
same,concentration at 0.05 h,"[2]; Mean, nasal, mean of 3 rats",38.3 ng/mL
same,concentration at 10 min,"[2]; Mean, nasal, mean of 3 rats",36 ng/mL
same,concentration at 20 min,"[2]; Mean, nasal, mean of 3 rats",19.5 ng/mL
same,concentration at 0.5 h,"[2]; Mean, nasal, mean of 3 rats",12 ng/mL
same,concentration at 0.75 h,"[2]; Mean, nasal, mean of 3 rats",7.96 ng/mL
same,concentration at 1 h,"[2]; Mean, nasal, mean of 3 rats",6.41 ng/mL
same,concentration at […],"[2]; Mean, nasal, mean of 3 rats",3.58 ng/mL
same,concentration at 2 h,"[2]; Mean, nasal, mean of 3 rats",2.59 ng/mL
same,concentration at 3 h,"[2]; Mean, nasal, mean of 3 rats",1.42 ng/mL
same,concentration at 0.05 h,[2]; [3],41.2 ng/mL
same,concentration at 5 min,[2]; [3],54.5 ng/mL
same,concentration at 10 min,[2]; [3],45.3 ng/mL
same,concentration at 20 min,[2]; [3],22.7 ng/mL
same,concentration at 0.5 h,[2]; [3],13.5 ng/mL
same,concentration at 0.75 h,[2]; [3],9.36 ng/mL
same,concentration at 1 h,[2]; [3],8.26 ng/mL
same,concentration at […],[2]; [3],4.79 ng/mL
same,concentration at 2 h,[2]; [3],3.65 ng/mL
same,concentration at 3 h,[2]; [3],1.95 ng/mL
same,half-life,[2]; iv,59.2 min
same,AUC(0-inf),"[2]; iv, individual rats I, II, III",21.2 ng·h/mL
same,AUC(0-inf),"[2]; iv, Mean, mean of 3 rats",25 ng·h/mL
same,concentration at 1 min,"[2]; iv, individual rats I, II, III",102 ng/mL
same,concentration at 0.05 h,"[2]; iv, individual rats I, II, III",52.3 ng/mL
same,concentration at 5 min,"[2]; iv, individual rats I, II, III",31.4 ng/mL
same,concentration at 10 min,"[2]; iv, individual rats I, II, III",15.6 ng/mL
same,concentration at 20 min,"[2]; iv, individual rats I, II, III",10.3 ng/mL
same,concentration at 0.5 h,"[2]; iv, individual rats I, II, III",7.28 ng/mL
same,concentration at 0.75 h,"[2]; iv, individual rats I, II, III",5.47 ng/mL
same,concentration at 1 h,"[2]; iv, individual rats I, II, III",4.87 ng/mL
same,concentration at […],"[2]; iv, individual rats I, II, III",3.01 ng/mL
same,concentration at 2 h,"[2]; iv, individual rats I, II, III",2.15 ng/mL
same,concentration at 3 h,"[2]; iv, individual rats I, II, III",1.25 ng/mL
same,concentration at 1 min,"[2]; iv, Mean, mean of 3 rats",111 ng/mL
same,concentration at 0.05 h,"[2]; iv, Mean, mean of 3 rats",58 ng/mL
same,concentration at 5 min,"[2]; iv, Mean, mean of 3 rats",37.5 ng/mL
same,concentration at 10 min,"[2]; iv, Mean, mean of 3 rats",19.6 ng/mL
same,concentration at 20 min,"[2]; iv, Mean, mean of 3 rats",11.6 ng/mL
same,concentration at 0.5 h,"[2]; iv, Mean, mean of 3 rats",8.34 ng/mL
same,concentration at 0.75 h,"[2]; iv, Mean, mean of 3 rats",6.74 ng/mL
same,concentration at 1 h,"[2]; iv, Mean, mean of 3 rats",5.41 ng/mL
same,concentration at […],"[2]; iv, Mean, mean of 3 rats",3.96 ng/mL
same,concentration at 2 h,"[2]; iv, Mean, mean of 3 rats",2.86 ng/mL
same,concentration at 3 h,"[2]; iv, Mean, mean of 3 rats",1.47 ng/mL
same,AUC(0-inf),[2]; [4],0.367 ng·h/mL
same,concentration at 5 min,[2]; [4],0.37 ng/mL
same,concentration at 10 min,[2]; [4],0.34 ng/mL
same,concentration at 0.75 h,[2]; [4],0.11 ng/mL
same,concentration at 1 h,[2]; [4],0.09 ng/mL
same,concentration at 2 h,[2]; [4],0.06 ng/mL
